Data from ChEMBL document CHEMBL4673283, “Penisarins A and B, Sesquiterpene Coumarins Isolated from an Endophytic Penicillium sp” (J Nat Prod, 2020).
The source made the active and inactive calls. The rule behind the calls is not given here.

Legend:
Assay type in all cases: functional, cell-based
[1] = tested on: HL-60; assay: Cytotoxicity against human HL-60 cells assessed as reduction in cell viability after 48 hrs by MTS assay; details: HL-60, 48 h
[2] = tested on: SMMC-7721; assay: Cytotoxicity against human SMMC-7721 cells assessed as reduction in cell viability after 48 hrs by MTS assay; details: SMMC-7721, 48 h
[3] = tested on: A549; assay: Cytotoxicity against human A549 cells assessed as reduction in cell viability after 48 hrs by MTS assay; details: A549, 48 h
[4] = tested on: MCF7; assay: Cytotoxicity against human MCF7 cells assessed as reduction in cell viability after 48 hrs by MTS assay; details: MCF7, 48 h
[5] = tested on: SW480; assay: Cytotoxicity against human SW480 cells assessed as reduction in cell viability after 48 hrs by MTS assay; details: SW480, 48 h
[6] = tested on: RAW264.7; assay: Inhibition of LPS-induced NO production in mouse RAW264.7 cells at 50 uM incubated for 18 hrs by Griess reagent based assay

| Compound | IC50 [1] [µM] | IC50 [2] [µM] | IC50 [3] [µM] | IC50 [4] [µM] | IC50 [5] [µM] | inhibition [6] |
| --- | --- | --- | --- | --- | --- | --- |
| COc1cc(C)c2c3c(c(=O)oc2c1)C[C@@H]([C@@]1(C)CC[C@H]2C(C)(C)C(=O)CC[C@@]21C)O3 | > 40 | > 40 | > 40 | > 40 | > 40 | inactive |
| COc1cc(C)c2c3c(c(=O)oc2c1)C[C@@H]([C@@]1(C)CC[C@H]2C(C)(C)[C@@H](O)CC[C@@]21C)O3 | 3.6 | 3.7 | 15.3 | 13 | 27.1 | inactive |
